Like-named read-outs stand apart in the source and are kept apart here.
Key:
[1] = target: T1, menin/MLL binding (biotinylated wild-type or mutated menin and MLL-AF9 fusion protein) (Homo sapiens, UniProt O00255); assay: Assay 1 (Binding Assay): AlphaLISA menin/MLL binding; settings: 5 nM biotinylated menin, MLL-AF9-FLAG lysate
T1 construct: biotinylated (1) wild-type menin or (2) mutated menin (described in Nature (2012) Vol. 482, pp. 542-548); fused on or other part: Biotin attached chemically (Sulfo-NHS-Biotin); no fused second protein is printed for menin
T1 sequence (O00255 1-459 limits assumed): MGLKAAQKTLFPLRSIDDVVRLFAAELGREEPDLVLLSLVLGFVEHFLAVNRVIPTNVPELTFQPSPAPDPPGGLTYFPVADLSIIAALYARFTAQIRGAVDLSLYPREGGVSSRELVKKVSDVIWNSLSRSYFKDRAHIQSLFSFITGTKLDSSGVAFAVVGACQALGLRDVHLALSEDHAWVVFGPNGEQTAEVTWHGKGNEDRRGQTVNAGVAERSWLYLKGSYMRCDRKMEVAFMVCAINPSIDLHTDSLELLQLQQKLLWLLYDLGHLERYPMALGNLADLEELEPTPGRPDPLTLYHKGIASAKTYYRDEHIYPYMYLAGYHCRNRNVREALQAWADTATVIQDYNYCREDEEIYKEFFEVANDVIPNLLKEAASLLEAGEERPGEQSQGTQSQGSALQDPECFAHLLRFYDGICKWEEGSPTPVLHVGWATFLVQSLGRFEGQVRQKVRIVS
Method in brief: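 Biotinylated E. coli-expressed menin (wild-type or mutant), 5 nM, incubated 30 min RT with compound and HEK293 lysate of MLL1-1,396–AF9-FLAG in pH 7.4 Tris buffer, 5% DMSO, 1 mM DTT. Anti-FLAG acceptor and streptavidin donor beads added, 60 min RT, AlphaLISA signal read. IC50 from four-parameter fit of % inhibition.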

[2] = tested on: human acute monocytic leukemia cell line MV-4-11; assay: Assay 2 (Cell Proliferation Assay), ATP quantitation (CellTiter-Glo); type: cell-based; settings: MV-4-11 cells, read-out: Assay 2 (EC50, inhibition of cell proliferation)
Method in brief: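 Cells (1.67×10^4/well, 10% FBS medium) incubated ±compound 72 h at 37 °C, 5% CO2; HL-60 served as toxicity control. ATP read by CellTiter-Glo luminescence; % inhibition scaled between DMSO and a potent menin inhibitor at ≥100×LD50.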

SMILES | IC50 [1] | EC50 ([2]; Homo sapiens, MV4-11, 72 h) | EC50 ([2]; 72 h)
CC(C)N(C(=O)c1cc(F)ccc1-n1cc(C2CN(CC[C@H]3CC[C@H](NS(C)(=O)=O)CC3)C2)c2ccncc21)C(C)C [Example 137, 5-fluoro-N,N-diisopropyl-2-(3-(1-(2-((1r,4r)-4-(methylsulfonamido)cyclohexyl)ethyl)azetidin-3-yl)-1H-pyrrolo[2,3-c]pyridin-1-yl)benzamide] | < 100 nM | < 100 nM | –
CC(C)N(C)C(=O)c1cc(F)ccc1-n1cc(C2CCC(NCc3ccc4[nH]c(=O)[nH]c4c3)CC2)c2ccncc21 (single isomer, unassigned) [Example 60, 5-fluoro-N-isopropyl-N-methyl-2-(3-(4-(((2-oxo-2,3-dihydro-1H-benzo[d]imidazol-5-yl)methyl)amino)cyclohexyl)-1H-pyrrolo[2,3-c]pyridin-1-yl)benzamide] | < 100 nM | – | 100 to 1000 nM
Cc1c(CN2CCC(n3c(=O)n(-c4ccc(F)cc4C(=O)N(C)C(C)C)c4cnccc43)CC2)ccc2[nH]c(C#N)cc12 [Example 82, 2-(1-(1-((2-cyano-4-methyl-1H-indol-5-yl)methyl)piperidin-4-yl)-2-oxo-1,2-dihydro-3H-imidazo[4,5-c]pyridin-3-yl)-5-fluoro-N-isopropyl-N-methylbenzamide] | < 100 nM | < 100 nM | –
CC(C)N(C)C(=O)c1cc(F)ccc1-c1cn(C2CCCN(Cc3ccc4[nH]c(=O)[nH]c4c3)C2)c2ccncc12 (centres unmarked) [Example 74, 5-fluoro-N-isopropyl-N-methyl-2-(1-(1-((2-oxo-2,3-dihydro-1H-benzo[d]imidazol-5-yl)methyl)piperidin-3-yl)-1H-pyrrolo[3,2-c]pyridin-3-yl)benzamide] | < 100 nM | ≥ 1000 nM | –
CC(C)N(C)C(=O)c1cc(F)ccc1-n1cc([C@H]2CC[C@H](N3CCOCC3)CC2)c2ccncc21 [Example 117, 5-fluoro-N-isopropyl-N-methyl-2-(3-(trans-4-morpholinocyclohexyl)-1H-pyrrolo[2,3-c]pyridin-1-yl)benzamide] | < 100 nM | ≥ 1000 nM | –
CC(C)N(C)C(=O)c1cc(F)ccc1-n1cc(C2CCC(N(C)C)CC2)c2ccncc21 (single isomer, unassigned) [Example 54A, 2-(3-(4-(dimethylamino)cyclohexyl)-1H-pyrrolo[2,3-c]pyridin-1-yl)-5-fluoro-N-isopropyl-N-methylbenzamide] | 100 to 1000 nM | – | ≥ 1000 nM
CC(C)N(C)C(=O)c1cc(F)ccc1-n1cc(C2CCN(C[C@H]3CC[C@H](O)CC3)CC2)c2ccncc21 [Example 27, trans-(5-fluoro-2-(3-(1-((4-hydroxycyclohexyl)methyl)piperidin-4-yl)-1H-pyrrolo[2,3-c]pyridin-1-yl)-N-isopropyl-N-methylbenzamide)] | < 100 nM | ≥ 1000 nM | –
CC(C)N(C)C(=O)c1cc(F)ccc1-n1cc(C2CCC(NCC3CCC(NS(C)(=O)=O)CC3)CC2)c2ccncc21 (single isomer, unassigned) [Example 62, 5-fluoro-N-isopropyl-N-methyl-2-(3-(4-(((4-(methylsulfonamido)cyclohexyl)methyl)amino)cyclohexyl)-1H-pyrrolo[2,3-c]pyridin-1-yl)benzamide] | < 100 nM | – | ≥ 1000 nM
CC(=O)N[C@H]1CC[C@H](CCN2CCC(c3cn(-c4ccc(F)cc4C(=O)N(C)C(C)C)c4cnccc34)CC2)CC1 [Example 18, 2-(3-(1-(2-(trans-4-acetamidocyclohexyl)ethyl)piperidin-4-yl)-1H-pyrrolo[2,3-c]pyridin-1-yl)-5-fluoro-N-isopropyl-N-methylbenzamide] | < 100 nM | 100 to 1000 nM | –
CS(=O)(=O)N[C@H]1CC[C@H](CCN2CCC(c3cn(-c4ccc(F)cc4OCC4CC4)c4cnccc34)CC2)CC1 [Example 34, N-(trans-4-(2-(4-(1-(2-(cyclopropylmethoxy)-4-fluorophenyl)-1H-pyrrolo[2,3-c]pyridin-3-yl)piperidin-1-yl)ethyl)cyclohexyl)methanesulfonamide] | < 100 nM | 100 to 1000 nM | –
Cc1c(CN2CCC(c3cn(-c4ccc(F)cc4C(=O)N(C)C(C)C)c4cnccc34)CC2)ccc2[nH]c(C#N)cc12 [Example 2, 2-(3-(1-((2-cyano-4-methyl-1H-indol-5-yl)methyl)piperidin-4-yl)-1H-pyrrolo[2,3-c]pyridin-1-yl)-5-fluoro-N-isopropyl-N-methylbenzamide] | < 100 nM | < 100 nM | –
CC(C)N(C(=O)c1cc(F)ccc1-n1cc(C2CCCN(Cc3ccc4c(c3)[nH]c(=O)n4CCO)C2)c2ccncc21)C(C)C (centres unmarked) [Example 84, 5-fluoro-2-(3-(1-((1-(2-hydroxyethyl)-2-oxo-2,3-dihydro-1H-benzo[d]imidazol-5-yl)methyl)piperidin-3-yl)-1H-pyrrolo[2,3-c]pyridin-1-yl)-N,N-diisopropylbenzamide] | < 100 nM | < 100 nM | –
CC(C)N(C)C(=O)c1cc(F)ccc1-n1cc(C2CCC(NCC3CCC(NS(C)(=O)=O)CC3)CC2)c2ccncc21 (single isomer, unassigned) [Example 61, 5-fluoro-N-isopropyl-N-methyl-2-(3-(4-(((4-(methylsulfonamido)cyclohexyl)methyl)amino)cyclohexyl)-1H-pyrrolo[2,3-c]pyridin-1-yl)benzamide] | < 100 nM | – | 100 to 1000 nM
CC(C)N(C)C(=O)c1cc(F)ccc1-n1cc(C2CCN(Cc3ccccc3Cl)CC2)c2ccncc21 [Example 15, 2-(3-(1-(2-chlorobenzyl)piperidin-4-yl)-1H-pyrrolo[2,3-c]pyridin-1-yl)-5-fluoro-N-isopropyl-N-methylbenzamide] | < 100 nM | 100 to 1000 nM | –
CCCCCCCCCCCCCCCCCC(=O)OCCn1c(=O)[nH]c2cc(CN3CCC[C@H](c4cn(-c5ccc(F)cc5C(=O)N(C)C(C)C)c5cnccc45)C3)ccc21 [Example 86, (R)-2-(5-((3-(1-(4-fluoro-2-(isopropyl(methyl)carbamoyl)phenyl)-1H-pyrrolo[2,3-c]pyridin-3-yl)piperidin-1-yl)methyl)-2-oxo-2,3-dihydro-1H-benzo[d]imidazol-1-yl)ethyl stearate] | < 100 nM | < 100 nM | –
CC(C)N(C)C(=O)c1cc(F)ccc1-n1cc(C2CCN(CC3CCOCC3)CC2)c2ccncc21 [Example 4, 5-fluoro-N-isopropyl-N-methyl-2-(3-(1-((tetrahydro-2H-pyran-4-yl)methyl)piperidin-4-yl)-1H-pyrrolo[2,3-c]pyridin-1-yl)benzamide] | < 100 nM | ≥ 1000 nM | –
CCN(C(=O)c1cc(F)ccc1-n1cc([C@H]2CCCN(Cc3ccc4c(c3)[nH]c(=O)n4CCO)C2)c2ccncc21)C(C)C [Example 49B, (R)-N-ethyl-5-fluoro-2-(3-(1-((1-(2-hydroxyethyl)-2-oxo-2,3-dihydro-1H-benzo[d]imidazol-5-yl)methyl)piperidin-3-yl)-1H-pyrrolo[2,3-c]pyridin-1-yl)-N-isopropylbenzamide] | < 100 nM | < 100 nM | –
CC(=O)OCCn1c(=O)[nH]c2cc(CN3CCC[C@H](c4cn(-c5ccc(F)cc5C(=O)N(C)C(C)C)c5cnccc45)C3)ccc21 [Example 85, (R)-2-(5-((3-(1-(4-fluoro-2-(isopropyl(methyl)carbamoyl)phenyl)-1H-pyrrolo[2,3-c]pyridin-3-yl)piperidin-1-yl)methyl)-2-oxo-2,3-dihydro-1H-benzo[d]imidazol-1-yl)ethyl acetate] | < 100 nM | < 100 nM | –
CC(C)N(C)C(=O)c1cc(F)ccc1-n1cc(C2CCN(C[C@H]3CC[C@@H](O)CC3)CC2)c2ccncc21 [Example 27A, cis-(5-fluoro-2-(3-(1-((4-hydroxycyclohexyl)methyl)piperidin-4-yl)-1H-pyrrolo[2,3-c]pyridin-1-yl)-N-isopropyl-N-methylbenzamide)] | < 100 nM | ≥ 1000 nM | –
CC(C)N(C)C(=O)c1cc(F)ccc1-n1cc([C@H]2CC[C@H](N3CCC[C@@H]3CO)CC2)c2ccncc21 [Example 100, 5-fluoro-2-(3-(trans-4-((R)-2-(hydroxymethyl)pyrrolidin-1-yl)cyclohexyl)-1H-pyrrolo[2,3-c]pyridin-1-yl)-N-isopropyl-N-methylbenzamide] | < 100 nM | 100 to 1000 nM | –
CCN(C(=O)c1cc(F)ccc1-n1cc(C2CCCN(Cc3ccc4[nH]c(=O)[nH]c4c3)C2)c2ccncc21)C(C)C (centres unmarked) [Example 47, N-ethyl-5-fluoro-N-isopropyl-2-(3-(1-((2-oxo-2,3-dihydro-1H-benzo[d]imidazol-5-yl)methyl)piperidin-3-yl)-1H-pyrrolo[2,3-c]pyridin-1-yl)benzamide] | < 100 nM | < 100 nM | –
CC(C)N(C)C(=O)c1cc(F)ccc1-n1cc([C@H]2CCCN(Cc3ccc4c(c3)[nH]c(=O)n4CCO)C2)c2ccncc21 (single isomer, unassigned) [Example 44A] | < 100 nM | < 100 nM | –

From US10899758B2, “Inhibitors of the menin-MLL interaction” (Vitae Pharmaceuticals, LLC, priority 2016, dated 2021)
